What was measured:
human recombinant HDAC1 = biological target: T1, human recombinant HDAC1 (Homo sapiens, UniProt Q13547); test: HDAC1 enzyme activity inhibition assay (in vitro, fluorimetric); type: biochemical; settings: human recombinant HDAC1, fluorimetric kit, 30° C. 60 minutes
T1 construct: purchased Enzo Life Science BML-SE456
How it was run: (§1)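 Human recombinant enzyme (0.3 μg for HDAC1) reacted with 10 μM Fluor de Lys-SIRT1 substrate and 5-fold compound dilutions at 30 °C for 60 min, then developer for 30 min. Fluorescence read at Ex 360/Em 460; IC50 calculated. HDAC6 run by the same protocol.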

human recombinant HDAC6 = biological target: T2, human recombinant HDAC6 (Homo sapiens, UniProt Q9UBN7); test: HDAC6 enzyme activity inhibition assay (in vitro, fluorimetric); type: biochemical; settings: for HDAC6 selectivity (fold): HDAC6 selectivity over HDAC1; for IC50: human recombinant HDAC6, fluorimetric kit, same protocol as HDAC1
T2 construct: purchased Calbiochem 382180
T2 sequence (Q9UBN7 1-1215): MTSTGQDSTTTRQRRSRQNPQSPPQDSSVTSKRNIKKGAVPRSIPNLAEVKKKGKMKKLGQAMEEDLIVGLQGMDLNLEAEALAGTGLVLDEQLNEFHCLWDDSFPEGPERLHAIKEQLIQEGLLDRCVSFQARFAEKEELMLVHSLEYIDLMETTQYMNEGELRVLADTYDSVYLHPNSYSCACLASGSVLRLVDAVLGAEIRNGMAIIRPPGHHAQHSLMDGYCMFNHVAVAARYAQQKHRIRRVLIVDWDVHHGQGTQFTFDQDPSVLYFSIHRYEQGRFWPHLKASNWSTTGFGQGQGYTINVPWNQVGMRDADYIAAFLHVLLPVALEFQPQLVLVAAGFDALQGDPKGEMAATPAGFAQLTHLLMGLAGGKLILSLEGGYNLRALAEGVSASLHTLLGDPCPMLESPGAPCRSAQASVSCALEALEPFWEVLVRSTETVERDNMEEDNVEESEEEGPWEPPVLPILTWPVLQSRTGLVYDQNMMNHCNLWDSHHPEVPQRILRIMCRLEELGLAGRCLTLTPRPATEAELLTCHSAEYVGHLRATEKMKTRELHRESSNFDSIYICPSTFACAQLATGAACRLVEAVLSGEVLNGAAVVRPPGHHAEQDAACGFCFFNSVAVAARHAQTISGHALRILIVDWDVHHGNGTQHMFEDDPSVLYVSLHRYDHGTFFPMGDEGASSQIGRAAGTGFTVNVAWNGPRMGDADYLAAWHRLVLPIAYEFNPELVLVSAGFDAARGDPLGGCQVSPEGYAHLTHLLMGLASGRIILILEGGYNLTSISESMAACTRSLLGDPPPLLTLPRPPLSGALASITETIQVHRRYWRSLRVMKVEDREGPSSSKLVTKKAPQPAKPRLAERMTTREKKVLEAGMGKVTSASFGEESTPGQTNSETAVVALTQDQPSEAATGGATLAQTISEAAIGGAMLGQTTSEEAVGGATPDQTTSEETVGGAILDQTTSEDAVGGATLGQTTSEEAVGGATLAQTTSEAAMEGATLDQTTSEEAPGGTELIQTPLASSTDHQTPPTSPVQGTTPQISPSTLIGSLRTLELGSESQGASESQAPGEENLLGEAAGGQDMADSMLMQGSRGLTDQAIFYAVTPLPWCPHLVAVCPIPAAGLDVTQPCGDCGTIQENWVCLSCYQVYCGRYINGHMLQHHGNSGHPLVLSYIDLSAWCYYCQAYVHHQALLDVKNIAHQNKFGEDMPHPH
How it was run: as §1

T1 sequence (Q13547 whole entry): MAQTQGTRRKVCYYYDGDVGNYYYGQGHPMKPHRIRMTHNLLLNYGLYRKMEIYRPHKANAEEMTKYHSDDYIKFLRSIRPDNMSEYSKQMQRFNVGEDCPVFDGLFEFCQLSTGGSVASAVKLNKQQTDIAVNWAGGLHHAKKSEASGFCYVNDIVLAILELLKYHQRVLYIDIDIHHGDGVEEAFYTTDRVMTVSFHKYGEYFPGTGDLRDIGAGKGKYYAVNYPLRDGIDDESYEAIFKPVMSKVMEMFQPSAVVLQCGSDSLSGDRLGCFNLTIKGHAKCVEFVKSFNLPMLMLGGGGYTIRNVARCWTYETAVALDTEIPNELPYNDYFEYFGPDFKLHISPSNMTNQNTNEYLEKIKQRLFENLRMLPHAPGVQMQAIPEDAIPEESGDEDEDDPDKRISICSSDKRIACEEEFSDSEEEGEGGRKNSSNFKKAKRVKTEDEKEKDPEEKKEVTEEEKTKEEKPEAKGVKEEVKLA

SMILES | IC50 (human recombinant HDAC1) | HDAC6 selectivity (fold) (human recombinant HDAC6) | IC50 (human recombinant HDAC6)
C[C@@H]1CN(Cc2ccc(C(=O)NO)cc2)C[C@H](C)N1Cc1cccc(OCC2CCN(CC(C)(C)F)CC2)c1 [Compound 380, 4-(((3R,5S)-4-(3-((1-(2-fluoro-2-methylpropyl)piperidin-4-yl)methoxy)benzyl)-3,5-dimethylpiperazin-1-yl)methyl)-N-hydroxybenzamide] | > 10000 nM | >62 fold | 162 nM
C[C@@H]1CN(Cc2ccc(C(=O)NO)cc2)C[C@H](C)N1Cc1cccc(CN2CCCCC2)c1 [Compound 382, 4-(((3R,5S)-3,5-dimethyl-4-(3-(piperidin-1-ylmethyl)benzyl)piperazin-1-yl)methyl)-N-hydroxybenzamide] | > 10000 nM |  | 83 nM
C[C@@H]1CN(Cc2ccc(C(=O)NO)cc2)C[C@H](C)N1Cc1cccc(CN2CC[C@@H](F)C2)c1 [Compound 383, 4-(((3R,5S)-4-(3-(((R)-3-fluoropyrrolidin-1-yl)methyl)benzyl)-3,5-dimethylpiperazin-1-yl)methyl)-N-hydroxybenzamide] | > 10000 nM | >102 fold | 98 nM
C[C@@H]1CN(Cc2ccc(C(=O)NO)cc2)C[C@H](C)N1Cc1cccc(CN2CC(F)(F)C2)c1 [Compound 384, 4-(((3R,5S)-4-(3-((3,3-difluoroazetidin-1-yl)methyl)benzyl)-3,5-dimethylpiperazin-1-yl)methyl)-N-hydroxybenzamide] | > 10000 nM | >94 fold | 106 nM
C[C@@H]1CN(Cc2ccc(C(=O)NO)cc2)C[C@H](C)N1Cc1cccc(CN2CCN(Cc3ccccc3)CC2)c1 [Compound 385, 4-(((3R,5S)-4-(3-((4-benzylpiperazin-1-yl)methyl)benzyl)-3,5-dimethylpiperazin-1-yl)methyl)-N-hydroxybenzamide] | > 10000 nM | >53 fold | 189 nM
C[C@@H]1CN(Cc2ccc(C(=O)NO)cc2)C[C@H](C)N1Cc1cccc(CN2CCN(CC(C)(C)O)CC2)c1 [Compound 386, N-hydroxy-4-(((3R,5S)-4-(3-((4-(2-hydroxy-2-methylpropyl)piperazin-1-yl)methyl)benzyl)-3,5-dimethylpiperazin-1-yl)methyl)benzamide] | > 10000 nM | >77 fold | 130 nM
C[C@@H]1CN(Cc2ccc(C(=O)NO)cc2)C[C@H](C)N1Cc1cccc(CN2CCN(CC(C)(C)F)CC2)c1 [Compound 387, 4-(((3R,5S)-4-(3-((4-(2-fluoro-2-methylpropyl)piperazin-1-yl)methyl)benzyl)-3,5-dimethylpiperazin-1-yl)methyl)-N-hydroxybenzamide] | > 10000 nM | >118 fold | 85 nM
C[C@@H]1CN(Cc2ccc(C(=O)NO)cc2)C[C@H](C)N1Cc1ccc(OCC2CCN(CC(C)(C)F)CC2)cc1 [Compound 388, 4-(((3R,5S)-4-(4-((1-(2-fluoro-2-methylpropyl)piperidin-4-yl)methoxy)benzyl)-3,5-dimethylpiperazin-1-yl)methyl)-N-hydroxybenzamide] | 9000 nM | 109 fold | 83 nM
C[C@@H]1CN(Cc2cccc(-c3ccoc3)c2)C[C@H](C)N1Cc1ccc(C(=O)NO)cc1 [Compound 396, 4-(((2S,6R)-4-(3-(furan-3-yl)benzyl)-2,6-dimethylpiperazin-1-yl)methyl)-N-hydroxybenzamide] | 1700 nM | 4 fold | 406 nM
C[C@@H]1CN(Cc2ccc(C3=CCC(C)(C)CC3)cc2)C[C@H](C)N1Cc1ccc(C(=O)NO)cc1 [Compound 400, 4-(((2S,6R)-4-((4′,4′-dimethyl-2′,3′,4′,5′-tetrahydro-[1,1′-biphenyl]-4-yl)methyl)-2,6-dimethylpiperazin-1-yl)methyl)-N-hydroxybenzamide] | 11300 nM | 4 fold | 2820 nM
C[C@@H]1CN(Cc2ccc(C3=CCOCC3)cc2)C[C@H](C)N1Cc1ccc(C(=O)NO)cc1 [Compound 401, 4-(((2S,6R)-4-(4-(3,6-dihydro-2H-pyran-4-yl)benzyl)-2,6-dimethylpiperazin-1-yl)methyl)-N-hydroxybenzamide] | 2000 nM | 7 fold | 301 nM
C[C@@H]1CN(Cc2ccc(C(=O)NO)cc2)C[C@H](C)N1C(=O)C1CCCO1 (stereo partly drawn) [Compound 402, 4-(((3R,5S)-3,5-dimethyl-4-(tetrahydrofuran-2-carbonyl)piperazin-1-yl)methyl)-N-hydroxybenzamide] | 5200 nM | 32 fold | 161 nM
C[C@@H]1CN(Cc2ccc(C(=O)NO)cc2)C[C@H](C)N1C(=O)c1cc[nH]n1 [Compound 403, 4-(((3R,5S)-3,5-dimethyl-4-(1H-pyrazole-3-carbonyl)piperazin-1-yl)methyl)-N-hydroxybenzamide] | 3200 nM | 53 fold | 61 nM
C[C@@H]1CN(Cc2ccc(C(=O)NO)cc2)C[C@H](C)N1C(=O)c1cnccn1 [Compound 404, 4-(((3R,5S)-3,5-dimethyl-4-(pyrazine-2-carbonyl)piperazin-1-yl)methyl)-N-hydroxybenzamide] | 5500 nM | 30 fold | 182 nM
C[C@@H]1CN(Cc2ccc(C(=O)NO)cc2)C[C@H](C)N1C(=O)c1ccncc1 [Compound 405, N-hydroxy-4-(((3R,5S)-4-isonicotinoyl-3,5-dimethylpiperazin-1-yl)methyl)benzamide] | 4300 nM | 17 fold | 248 nM
C[C@@H]1CN(Cc2ccc(C(=O)NO)cc2)C[C@H](C)N1Cc1ccc(CN2CC[C@@H](F)C2)cc1 [Compound 411, 4-(((3R,5S)-4-(4-(((R)-3-fluoropyrrolidin-1-yl)methyl)benzyl)-3,5-dimethylpiperazin-1-yl)methyl)-N-hydroxybenzamide] | 4300 nM | 538 fold | 8 nM
C[C@@H]1CN(Cc2ccc(C(=O)NO)cc2)C[C@H](C)N1Cc1ccc(CN2CC(F)(F)C2)cc1 [Compound 412, 4-(((3R,5S)-4-(4-((3,3-difluoroazetidin-1-yl)methyl)benzyl)-3,5-dimethylpiperazin-1-yl)methyl)-N-hydroxybenzamide] | 1100 nM | 36 fold | 32 nM
C[C@@H]1CN(Cc2ccc(C(=O)NO)cc2)C[C@H](C)N1Cc1ccc(CN2CCN(Cc3ccccc3)CC2)cc1 [Compound 413, 4-(((3R,5S)-4-(4-((4-benzylpiperazin-1-yl)methyl)benzyl)-3,5-dimethylpiperazin-1-yl)methyl)-N-hydroxybenzamide] | > 10000 nM | >769 fold | 13 nM
C[C@@H]1CN(Cc2ccc(C(=O)NO)cc2)C[C@H](C)N1C(=O)c1cccc(CN2CCCC2)c1 [Compound 423, 4-(((3R,5S)-3,5-dimethyl-4-(3-(pyrrolidin-1-ylmethyl)benzoyl)piperazin-1-yl)methyl)-N-hydroxybenzamide] | 1000 nM | 22 fold | 46 nM
C[C@@H]1CN(Cc2ccc(C(=O)NO)cc2)C[C@H](C)N1C(=O)c1cccc(CN2CCCCC2)c1 [Compound 424, 4-(((3R,5S)-3,5-dimethyl-4-(3-(piperidin-1-ylmethyl)benzoyl)piperazin-1-yl)methyl)-N-hydroxybenzamide] | 1200 nM | 27 fold | 43 nM
CCN(CC)Cc1cccc(C(=O)N2[C@H](C)CN(Cc3ccc(C(=O)NO)cc3)C[C@@H]2C)c1 [Compound 425, 4-(((3R,5S)-4-(3-((diethylamino)methyl)benzoyl)-3,5-dimethylpiperazin-1-yl)methyl)-N-hydroxybenzamide] | 1500 nM | 17 fold | 86 nM

Source: patent US10287255B2, “Compounds as histone deacetylase 6 inhibitors and pharmaceutical compositions comprising the same” (CHONG KUN DANG PHARMACEUTICAL CORP., priority 2014, dated 2019)
